# Experimental data from paper PMC2579677 (British Journal of Cancer, 2008).
# Values joined by “and” are separate entries in the source; they are usually repeats but may differ in a detail not shown here. Equal values may be shown once. Read-outs that look alike come from different tables or passages of the source.
# What was measured:
# [1] = tested on: MCF-7dox40 xenograft tumours; assay: Paclitaxel-resistant MCF-7dox40 xenograft tumour growth inhibition; type: in vivo, MF-1 nu/nu mice; conditions: 28 days
# [2] = tested on: MCF-7wt xenograft tumours; assay: MCF-7wt xenograft tumour growth inhibition; type: in vivo, MF-1 nu/nu mice; conditions: 28 days, compared with vehicle-only
# [3] = design: method as in Foster et al, 2008; conditions: single oral administration; ref Foster et al, 2008; cited from earlier work
# range of cell lines = conditions: 2003, 2005, cited from earlier work; for difference in antiproliferative activity relative to 2-MeOE2: some investigations, ref Day et al, Wood et al, 2004, Leese et al
# [4] = tested on: MDA-MB-231 xenograft tumours; assay: MDA-MB-231 xenograft tumour growth inhibition; conditions: 21 days
# [5] = tested on: bFGF-stimulated angiogenesis in Matrigel plugs; assay: In vivo angiogenesis assay (bFGF-supplemented Matrigel plug, FITC-dextran); design: species or system C57BL/6J mice; conditions: for reduction of level of angiogenesis: 10 mg kg^−1 orally daily for four days, compared with bFGF-only
# Description: The antiangiogenic potential of STX243 was assessed using a modified Matrigel plug assay as described earlier ([Passaniti et al, 1992]; [Prewett et al, 1999]; [Chander et al, 2007]). The female C57BL/6J mice used in this study were obtained from Harlan (Bicester). The mice were anaesthetised, placed on a heated pad (37°C) and 0.5 ml of ice-cold Matrigel supplemented with 500 ng of basic fibroblast growth factor (bFGF) was injected subcutaneously into the flanks of each mouse. Control mice received Matrigel without bFGF. The mice were subsequently weighed before returning the mice to their isolator. After 24 h of Matrigel injection, the mice were placed into the following treatment groups: control, bFGF-only, bFGF plus STX140 (10 mg kg^−1, orally) and bFGF plus STX243 (10, 20 or 40 mg kg^−1, orally). Control and bFGF-only animals were dosed orally with vehicle (10% THF, 90% PG). The animals were dosed every day for four days with five animals per treatment group. Quantification of the blood vessels within the Matrigel plugs was facilitated through the intravenous injection of 100 μl of 0.25 mg ml^−1 FITC-dextran (250 000 molecular weight) seven days after the Matrigel injection. FITC-dextran injection allows for visualisation of the blood vessels that has been recently formed in the matrigel plugs. The animals were killed 20 min after the injection of the FITC-dextran. The mice were subsequently weighed and the Matrigel plugs were removed. The Matrigel plugs were photographed and subsequently dissolved in 1 ml Dispase reagent for 16 h at 37°C. The resulting mixture was centrifuged at 15 700 g (20°C) for 30 s. The fluorescence of the supernatant was measured using a FLUOstar OPTIMA fluorimeter (BMG Labtech Ltd., Aylesbury, Bucks, UK). The excitation and emission wavelengths used were 480 and 520 nm, respectively. The fluorescence of the samples was quantitated using a standard curve of FITC-dextran (0.4–25 μg ml^−1).
# [6] = Pharmacokinetics of STX243 in plasma (HPLC); type: in vivo, female Wistar rats; conditions: for clearance / MRT / Vd / half-life / Cmax: female, Wistar; for clearance / MRT / Vd / half-life: rat, plasma; for clearance: read-out: Cl (total body clearance) (converted); for MRT: read-out: MRT (mean residence time); for Vd: read-out: VD (volume of distribution); for half-life: read-out: t1/2β (elimination half-life) (converted)
# HUVECs = assay: In vitro angiogenesis kit: VEGF-stimulated vessel formation in HUVEC/fibroblast coculture; type: cell-based, human; conditions: VEGF 2 ng ml^−1 stimulated, day 11
# Description: The effects of the compounds on in vitro vessel formation were assessed using an angiogenesis kit (TCS Cellworks, Claydon, UK). For this assay, HUVECs (obtained from TCS Cellworks) were cultured in a 24-well plate within a matrix of human diploid fibroblasts of dermal origin in an optimised medium (TCS Cellworks) supplemented with 2 ng ml^−1 vascular endothelial growth factor (VEGF). The cocultured cells were incubated throughout the experiment at 37°C under 5% CO2 in a humidified incubator. On day 1, the culture medium was removed and replaced with medium containing the compounds under investigation. The vehicle used for the dilution of compound was tetrahydrofuran (THF). The final concentration of THF in the medium was 0.001 (100 nM dose) to 0.00025% (25 nM dose). On days 4, 7 and 9, the medium was replaced with fresh medium containing the compounds. Each compound was tested in triplicate. On day 11, the cells were washed (phosphate-buffered saline) and 70% ethanol (1 ml) was added to each well for 30 min to fix the cells. After fixation, the cells were washed with blocking buffer (1 ml, phosphate-buffered saline+1% bovine serum albumin) and stained for CD31 according to the manufacturer's instructions (TCS Cellworks).
# The extent of vessel formation was then quantified using a variation of an earlier described technique ([Newman et al, 2004]). Briefly, using a high-resolution transmissive scanner (ScanMaker 9800, Microtek, Willich, Germany), each well was scanned and saved as a tagged image format (TIF) file in Photoshop (Adobe, San Jose, CA, USA). The image was then converted to a black and white image using the photocopy filter in Photoshop ( × 2, 10 detail and 25 darkness) and saved as an uncompressed TIF file. The files were transferred to the AngioSys software (TCS Cellworks), all background and non-tubule-like structures were removed using erode ( × 1) and clean (100 pixels) functions, and the number of pixels representing vessels was counted. This technique was validated (data not shown) against the quantification techniques as described earlier ([Newman et al, 2004]).
# [7] = tested on: bFGF-stimulated angiogenesis in Matrigel plugs; design: method as in Chander et al, 2007; conditions: ref Chander et al, 2007, cited from earlier work
# [8] = cited from earlier work
# [9] = tested on: human umbilical vein endothelial cell (HUVEC); design: method as in Newman et al, 2004; conditions: ref Newman et al, 2004; cited from earlier work
# [10] = tested on: MCF-7dox40 xenograft tumours; design: method as in Newman et al, 2008; conditions: ref Newman et al, 2008; cited from earlier work
# [11] = 40 mg kg^−1 orally daily, compared with vehicle-only
compound,measurement,setting,value
"CC(=O)O[C@H]1C(=O)[C@@]2(C)[C@H]([C@H](OC(=O)c3ccccc3)[C@]3(O)C[C@H](OC(=O)[C@H](O)[C@@H](NC(=O)c4ccccc4)c4ccccc4)C(C)=C1C3(C)C)[C@]1(OC(C)=O)CO[C@@H]1C[C@@H]2O [paclitaxel, reference compound]",tumour growth inhibition,[1]; 15 mg kg^−1 intravenous weekly,only STX243 was capable of significantly inhibiting the growth
same,tumour growth inhibition,[2]; 15 mg kg^−1 intravenous weekly,87±6%
"CCc1cc2c(cc1OS(N)(=O)=O)CCC1C2CC[C@@]2(C)C1CC[C@@H]2OS(N)(=O)=O (stereo partly drawn) [STX243, 2-ethyloestradiol-3,17-O,O-bis-sulphamate]",maximum-tolerated dose,[3],300 mg/kg
same,potency at inhibiting cell proliferation relative to STX140,"range of cell lines; range of cell lines, ref Suzuki et al, Raobaikady et al",equipotent to STX140
same,difference in antiproliferative activity relative to 2-MeOE2,range of cell lines,10 fold
same,tumour growth inhibition,[1]; [11],74±4%
same,tumour growth inhibition,[4]; [11],72% and 72±13%
same,tumour growth inhibition,[2]; 40 mg kg^−1 orally daily,87±5%
same,reduction of level of angiogenesis,[5],50% and 50±6%
same,growth of new blood vessels in Matrigel plugs,"[5]; all doses investigated (10, 20 or 40 mg kg^−1 orally), P<0.001 vs bFGF-only",significantly inhibited
same,AUC,[6]; Intravenous 10 mg kg^−1,42 hμg ml^−1
same,AUMC,[6]; Intravenous 10 mg kg^−1,267 h^2μg ml^−1
same,AUC,[6]; Intravenous 40 mg kg^−1,126 hμg ml^−1
same,AUMC,[6]; Intravenous 40 mg kg^−1,558 h^2μg ml^−1
same,AUC,[6]; Oral 10 mg kg^−1,13 hμg ml^−1
same,AUMC,[6]; Oral 10 mg kg^−1,219 h^2μg ml^−1
same,Bioavailability (% F),[6]; Oral 10 mg kg^−1,31 % F and 30.7 % F
same,time of highest plasma concentration,[6]; Oral 10 mg kg^−1,4 h
same,AUC,[6]; Oral 40 mg kg^−1,23 hμg ml^−1
same,AUMC,[6]; Oral 40 mg kg^−1,157 h^2μg ml^−1
same,Bioavailability (% F),[6]; Oral 40 mg kg^−1,18 % F
same,time of highest plasma concentration,[6]; Oral 40 mg kg^−1,8 h
same,clearance,[6]; Intravenous 10 mg kg^−1,3.92 mL/min/kg
same,MRT,[6]; Intravenous 10 mg kg^−1,6.28 h
same,Vd,[6]; Intravenous 10 mg kg^−1,1.48 L/kg
same,half-life,[6]; Intravenous 10 mg kg^−1,4.78 h
same,clearance,[6]; Intravenous 40 mg kg^−1,5.3 mL/min/kg
same,MRT,[6]; Intravenous 40 mg kg^−1,4.44 h
same,Vd,[6]; Intravenous 40 mg kg^−1,1.41 L/kg
same,half-life,[6]; Intravenous 40 mg kg^−1,3.18 h
same,MRT,[6]; Oral 10 mg kg^−1,16.8 h
same,half-life,[6]; Oral 10 mg kg^−1,11.4 h
same,MRT,[6]; Oral 40 mg kg^−1,6.93 h
same,half-life,[6]; Oral 40 mg kg^−1,1.88 h
same,Cmax,"[6]; Intravenous 10 mg kg^−1, rat plasma",13100 ng/mL
same,Cmax,"[6]; Intravenous 40 mg kg^−1, rat plasma",44800 ng/mL
same,Cmax,"[6]; Oral 10 mg kg^−1, rat plasma",640 ng/mL
same,Cmax,"[6]; Oral 40 mg kg^−1, rat plasma",1760 ng/mL
same,metabolism (to putative metabolite STX1813) in plasma,"[6]; intravenous or oral, 10 or 40 mg kg^−1, HPLC",no significant metabolism
same,vessel formation,HUVECs; 25 nM,only a small inhibition
same,vessel formation,HUVECs; 50 nM,significant inhibition of vessel formation
same,vessel (tubule) formation,HUVECs; 100 nM,completely blocked all tubule formation
"COc1cc2c(cc1O)CC[C@@H]1[C@@H]2CC[C@]2(C)[C@@H](O)CC[C@@H]12 [2-MeOE2, 2-methoxyoestradiol, reference compound]",tumour growth inhibition,[4]; [11],No significant tumour inhibition
same,tumour growth inhibition,[4]; 75 mg kg^−1 orally daily,No significant tumour inhibition
same,angiogenesis inhibition in Matrigel plugs,[7]; 10 mg kg^−1 dose,no significant inhibition
same,angiogenesis inhibition in Matrigel plugs,[7]; 50 mg kg^−1 orally,Angiogenesis inhibition was only observed
same,plasma concentration 1 h after intravenous dosing,"[8]; 10 mg kg^−1 intravenous, HPLC, ref Ireson et al, 2004",below the LOD
"COc1cc2c(cc1OS(N)(=O)=O)CCC1C2CC[C@@]2(C)C1CC[C@@H]2OS(N)(=O)=O (stereo partly drawn) [STX140, 2-MeOE2-3,17-O,O-bis-sulphamate]",maximum-tolerated dose,[3],150 mg/kg
same,difference in antiproliferative activity relative to 2-MeOE2,range of cell lines,10 fold
same,tumour growth inhibition,"[4]; 20 mg kg^−1 orally daily, compared with vehicle-only",63% and 63±7%
same,reduction of level of angiogenesis,[5],72% and 72±5%
same,effectiveness at inhibiting HUVEC proliferation relative to 2-MeOE2,[9],60 fold
same,maximum concentration in plasma,"[8]; rat, in vivo, iv",6.6 µg/mL
same,oral bioavailability,"[8]; rat, in vivo, po, 10 mg/kg",85%
same,maximum concentration in plasma,"[8]; rat, in vivo, po",3.9 µg/mL
same,time of peak plasma concentration,"[8]; rat, in vivo, po",3 h
same,inhibition of growth of MCF-7dox40 tumours,[10],capable of inhibiting the growth of MCF-7dox40 tumours
